# Test results: US20170190671A1, “BIS(ARYL)CATECHOL DERIVATIVES AS HERBICIDES” (E I DU PONT DE NEMOURS AND COMPANY, priority 2014, published 2017)
# Legend:
# Type in all cases: in vivo
# kochia (Kochia scoparia) [1] = test: Test C postemergence; details: Bassia scoparia, post-emergence, Postemergence, scale 0 to 100, read-out: Plant response rating, Kochia
# [2] = tested on: pigweed (Amaranthus retroflexus); test: Test C postemergence; details: Amaranthus retroflexus, post-emergence, 336 h, Postemergence, scale 0 to 100, read-out: Plant response rating, Pigweed
# kochia (Kochia scoparia) [3] = test: Test A preemergence; details: Bassia scoparia, pre-emergence, 240 h
# How it was run: (§1)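 Visual injury scored 0–100 (100 = complete control) against untreated controls about 10 days after treatment in a greenhouse. Test chemicals, formulated with surfactant in non-phytotoxic solvent, were sprayed on soil preemergence or on 2-10 cm, one- to two-leaf plants postemergence.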
# [4] = tested on: Italian ryegrass (Lolium multiflorum); test: Test A preemergence; details: Lolium multiflorum, pre-emergence, 240 h
# How it was run: as §1
# [5] = tested on: barnyardgrass (Echinochloa crus-galli); test: Test A preemergence; details: Echinochloa crus-galli, pre-emergence, 240 h
# How it was run: as §1
# [6] = tested on: giant foxtail (Setaria faberii); test: Test A preemergence; details: Setaria faberi, pre-emergence, 240 h
# How it was run: as §1
# [7] = tested on: pigweed (Amaranthus retroflexus); test: Test A preemergence; details: Amaranthus retroflexus, pre-emergence, 240 h
# How it was run: as §1
# [8] = tested on: ragweed (common ragweed, Ambrosia elatior); test: Test A preemergence; details: Ambrosia artemisiifolia, pre-emergence, 240 h
# How it was run: as §1
# [9] = tested on: wheat (Triticum aestivum); test: Test A postemergence; details: Triticum aestivum, post-emergence, 240 h, 0 to 100 scale, read-out: Plant response rating, Wheat
# How it was run: as §1
# [10] = tested on: galium (catchweed bedstraw, Galium aparine); test: Test A postemergence; details: Galium, post-emergence, 240 h, 0 to 100 scale, read-out: Plant response rating, Galium
# How it was run: as §1
# corn (Zea mays) = test: Test A postemergence; details: Zea mays, post-emergence, 240 h, 0 to 100 scale
# How it was run: as §1
# [11] = tested on: blackgrass (Alopecurus myosuroides); test: Test A postemergence; details: Alopecurus myosuroides, post-emergence, 240 h, 0 to 100 scale, read-out: Plant response rating, Blackgrass
# How it was run: as §1
# kochia (Kochia scoparia) [12] = test: Test A postemergence; details: Bassia scoparia, post-emergence, 240 h, 0 to 100 scale, read-out: Plant response rating, Kochia
# How it was run: as §1
# [13] = tested on: Italian ryegrass (Lolium multiflorum); test: Test A postemergence; details: Lolium multiflorum, post-emergence, 240 h, 0 to 100 scale, read-out: Plant response rating, Ryegrass, Italian
# How it was run: as §1
# [14] = tested on: barnyardgrass (Echinochloa crus-galli); test: Test A postemergence; details: Echinochloa crus-galli, post-emergence, 240 h, 0 to 100 scale, read-out: Plant response rating, Barnyardgrass
# How it was run: as §1
# [15] = tested on: giant foxtail (Setaria faberii); test: Test A postemergence; details: Setaria faberi, post-emergence, 240 h, 0 to 100 scale, read-out: Plant response rating, Foxtail, Giant
# How it was run: as §1
# [16] = tested on: pigweed (Amaranthus retroflexus); test: Test A postemergence; details: Amaranthus retroflexus, post-emergence, 240 h, 0 to 100 scale, read-out: Plant response rating, Pigweed
# How it was run: as §1
# [17] = tested on: ragweed (common ragweed, Ambrosia elatior); test: Test A postemergence; details: Ambrosia artemisiifolia, post-emergence, 240 h, 0 to 100 scale, read-out: Plant response rating, Ragweed
# How it was run: as §1
# [18] = tested on: sedge, umbrella (small-flower umbrella sedge, Cyperus difformis); test: Test B flooded paddy; details: Cyperus difformis, 336 h; 250 g ai/ha, Flood, 13 to 15 days, scale 0 (no effect) to 100 (complete control); read-out: Plant response rating, Sedge, Umbrella
# How it was run: (§2)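 Flooded 3 cm over soil; compound into paddy water; depth kept constant. Greenhouse 13–15 d.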
# [19] = tested on: barnyardgrass (Echinochloa crus-galli); test: Test B flooded paddy; details: Echinochloa crus-galli, 336 h; 250 g ai/ha, Flood, 13 to 15 days, scale 0 (no effect) to 100 (complete control); read-out: Plant response rating, Barnyardgrass
# How it was run: as §2
# [20] = tested on: ducksalad (Heteranthera limosa); test: Test B flooded paddy; details: Heteranthera limosa, 336 h; 250 g ai/ha, Flood, 13 to 15 days, scale 0 (no effect) to 100 (complete control); read-out: Plant response rating, Ducksalad
# How it was run: as §2
# rice (Oryza sativa) = test: Test B flooded paddy; details: Oryza sativa, 336 h; 250 g ai/ha, Flood, 13 to 15 days, scale 0 (no effect) to 100 (complete control); read-out: Plant response rating, Rice
# How it was run: as §2
structure (smiles),measurement,setting,value
"FC(F)c1cccc(Oc2ncc(Cl)cn2)c1Oc1ncc(Cl)cn1 [Compound 46, 2,2′-[[3-(difluoromethyl)-1,2-phenylene]bis(oxy)]bis[5-chloropyrimidine]]",pest or weed control at 16 g/ha,kochia (Kochia scoparia) [1]; 16 g ai/ha,70%
same,pest or weed control at 31 g/ha,kochia (Kochia scoparia) [1]; 31 g ai/ha,80%
same,pest or weed control at 62 g/ha,kochia (Kochia scoparia) [1]; 62 g ai/ha,95%
same,pest or weed control at 125 g/ha,kochia (Kochia scoparia) [1]; 125 g ai/ha,100%
same,pest or weed control at 31 g/ha,[2]; 31 g ai/ha,70%
same,pest or weed control at 62 g/ha,[2]; 62 g ai/ha,70%
same,pest or weed control at 125 g/ha,[2]; 125 g ai/ha,85%
same,pest or weed control at 125 g/ha,"kochia (Kochia scoparia) [3]; 125 g ai/ha, 0 to 100 scale (0 no effect, 100 complete control), read-out: Kochia plant response rating",100%
same,pest or weed control at 500 g/ha,"kochia (Kochia scoparia) [3]; 500 g ai/ha, 0 to 100 scale, read-out: Plant response rating, Kochia",100%
same,pest or weed control at 125 g/ha,"[4]; 125 g ai/ha, 0 to 100 scale (0 no effect, 100 complete control), read-out: Ryegrass, Italian plant response rating",30%
same,pest or weed control at 500 g/ha,"[4]; 500 g ai/ha, 0 to 100 scale, read-out: Plant response rating, Ryegrass, Italian",80%
same,pest or weed control at 125 g/ha,"[5]; 125 g ai/ha, 0 to 100 scale (0 no effect, 100 complete control), read-out: Barnyardgrass plant response rating",90%
same,pest or weed control at 500 g/ha,"[5]; 500 g ai/ha, 0 to 100 scale, read-out: Plant response rating, Barnyardgrass",100%
same,pest or weed control at 125 g/ha,"[6]; 125 g ai/ha, 0 to 100 scale (0 no effect, 100 complete control), read-out: Foxtail, Giant plant response rating",100%
same,pest or weed control at 500 g/ha,"[6]; 500 g ai/ha, 0 to 100 scale, read-out: Plant response rating, Foxtail, Giant",100%
same,pest or weed control at 125 g/ha,"[7]; 125 g ai/ha, 0 to 100 scale (0 no effect, 100 complete control), read-out: Pigweed plant response rating",100%
same,pest or weed control at 500 g/ha,"[7]; 500 g ai/ha, 0 to 100 scale, read-out: Plant response rating, Pigweed",100%
same,pest or weed control at 125 g/ha,"[8]; 125 g ai/ha, 0 to 100 scale (0 no effect, 100 complete control), read-out: Ragweed plant response rating",90%
same,pest or weed control at 500 g/ha,"[8]; 500 g ai/ha, 0 to 100 scale, read-out: Plant response rating, Ragweed",100%
same,plant injury at 125 g/ha,[9]; 125 g ai/ha,50%
same,plant injury at 500 g/ha,[9]; 500 g ai/ha,100%
same,pest or weed control at 125 g/ha,[10]; 125 g ai/ha,100%
same,pest or weed control at 500 g/ha,[10]; 500 g ai/ha,100%
same,"Corn plant response rating (crop injury, 0 = no effect, 100 = complete kill) at 125 g/ha",corn (Zea mays); 125 g ai/ha,90%
same,"Corn plant response rating (crop injury, 0 = no effect, 100 = complete kill) at 500 g/ha",corn (Zea mays); 500 g ai/ha,100%
same,pest or weed control at 125 g/ha,[11]; 125 g ai/ha,90%
same,pest or weed control at 500 g/ha,[11]; 500 g ai/ha,100%
same,pest or weed control at 125 g/ha,kochia (Kochia scoparia) [12]; 125 g ai/ha,100%
same,pest or weed control at 500 g/ha,kochia (Kochia scoparia) [12]; 500 g ai/ha,60%
same,pest or weed control at 125 g/ha,[13]; 125 g ai/ha,90%
same,pest or weed control at 500 g/ha,[13]; 500 g ai/ha,100%
same,pest or weed control at 125 g/ha,[14]; 125 g ai/ha,90%
same,pest or weed control at 500 g/ha,[14]; 500 g ai/ha,100%
same,pest or weed control at 125 g/ha,[15]; 125 g ai/ha,90%
same,pest or weed control at 500 g/ha,[15]; 500 g ai/ha,100%
same,pest or weed control at 125 g/ha,[16]; 125 g ai/ha,100%
same,pest or weed control at 500 g/ha,[16]; 500 g ai/ha,100%
same,pest or weed control at 125 g/ha,[17]; 125 g ai/ha,100%
same,pest or weed control at 500 g/ha,[17]; 500 g ai/ha,100%
same,pest or weed control at 250 g/ha,[18],65%
same,pest or weed control at 250 g/ha,[19],0%
same,pest or weed control at 250 g/ha,[20],80%
same,plant injury at 250 g/ha,rice (Oryza sativa),10%
